In patent US6939953B2, “Leukotriene receptor” (Schering Corporation, priority 1999, dated 2005):
Read-outs that look alike come from different tables or passages of the source.

How the values were obtained:
[1] = biological target: T1, SP9030 (human leukotriene receptor, SEQ ID NO: 2) (Homo sapiens, UniProt Q9NPC1); test: Radioligand competition assay using ^3H-LTB4 as the label on membranes of COS-7 cells transfected with SP9030 cDNA; type: binding; settings: for Affinity of the receptor for the ligand (in words): summary statement; for Ki: read-out: Ki (competition with ^3H-LTB4)
T1 construct: The ORF of SP9030 was cloned in the expression vector pCR3.1 (pCR3.1-SP9030); expressed in transfected cells; host or cells: COS-7 cells (membranes)
T1 sequence (Q9NPC1 1-358): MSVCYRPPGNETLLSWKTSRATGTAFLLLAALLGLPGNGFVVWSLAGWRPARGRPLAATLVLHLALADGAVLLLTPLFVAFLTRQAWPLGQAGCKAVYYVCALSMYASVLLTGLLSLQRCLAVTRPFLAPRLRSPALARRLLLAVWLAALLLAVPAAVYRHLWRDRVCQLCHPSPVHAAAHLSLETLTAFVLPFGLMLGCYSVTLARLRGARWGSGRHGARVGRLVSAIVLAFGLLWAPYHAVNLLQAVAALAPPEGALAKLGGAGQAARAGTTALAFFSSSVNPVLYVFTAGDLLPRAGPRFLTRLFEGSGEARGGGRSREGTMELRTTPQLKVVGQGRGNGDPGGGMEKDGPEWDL
Protocol: COS-7 cells, grown in DMEM/10% FCS until 80-90% confluence, were transfected with SuperFect agent (Giagene) at 20 μg DNA/150 mm plate. Forty eight hours after transfection, medium was changed to Opti-MEM or DMEM/Opti-MEM(1:1)/5% FCS. Cells were harvested 72 hours after transfection and membranes from the cells were prepared as follows. The cells were washed with 20 ml PBS without Ca^2+/Mg^2+ and incubated with 10 ml […] Hepes pH 7.4, 0.5 mM PMSF, 20 μg/ml aprotinin. The cells were scraped off the plate and vortexed. The cell suspension was then centrifuged at 13,000 g at 4° C. for 15 min. The pellets were re-suspended in 1.8 ml 50 mM Tris-Cl, pH 7.5 and vortexed. The membranes were homogenized with a 23-gauge needle. The protein concentration of the membrane preparations was determined with the BCA agents (Pierce).
Radioligand binding assays were performed to test the ability of SP9030, when expressed in cultured cells, to bind ^3H-labeled leukotriene. The ORF of SP9030 was cloned in the expression vector pCR3.1 (pCR3.1-SP9030). COS-7 cells were transfected with pCR3.1-SP9030 or pCR3.1 alone (mock transfection). Two days after transfection, the normal growth medium DMEM/10% FCS was replaced by either Opti-MEM or DMEM-Opti-MEM/5% FCS. The cells were allowed to grow one more day and then membranes were prepared for use in binding assay.
The reactions were incubated for 1 hour at 4° C. while rotated slowly. Multiscreen FB filters (Millipore) pre-soaked with 50 μl binding assay buffer for 1 hour at room temperature were used to filter the binding assays and the filters were washed twice with 100 μl 50 mM TrisCl, pH 7.5 (ice cold). Fifty microliters of scintillation fluid was added to the filters and counted to detect the bound radioligands. For radioligand competition assays, 160 μl binding assay buffer containing appropriate membranes were mixed with 20 μl of binding assay buffer containing 6% DMSO (v/v) and various concentrations of competing compounds. […] The final concentration of radioligand was 0.25 nM. Incubation conditions were the same as that used for the above described saturation assays.
COS-7 cells transfected with SP9030 cDNA were harvested three days after transfection and membrane prepared from cells used for binding assays.

[2] = biological target: T2, SP9030 expressed in 293-EBNA cells (Homo sapiens, UniProt Q9NPC1); test: Intracellular Ca2+ flux measurement (FLIPR) in 293-EBNA cells expressing SP9030; type: cell-based; settings: 293-EBNA cells transfected with SP9030, Fluo-3, FLIPR
T2 construct: expressed in transfected cells; host or cells: 293-EBNA cells
T2 sequence (Q9NPC1 1-358): T1 sequence (Q9NPC1 1-358)
Protocol: (§1) 293-EBNA cells, grown in DMEM containing 10% FCS until 80-90% confluence, were transfected with SuperFect transfection agent. The next day, cells were trypsinized off culture plates and washed with PBS lacking Ca^2+/Mg^2+. The cells were then seeded at a density of 35,000 cells per 100 μl medium) into 96-well plates that were pre-coated with poly-D-lysine (Becton Dickinson). The third day following transfection, medium was removed from cells and 100 μl Hank's balanced salt solution (lacking phenol red) containing 4 μM of Fluo-3, AM (Molecular Probes), 20 mM Hepes, pH 7.4, 0.1% (w/v) BSA and […] added and subsequently incubated at 37° C., 5% CO2 for 1 hour. The cells were then washed three times with 150 μl wash buffer containing HANK's BSS, 40 mM Hepes, pH 7.4 and […]. One hundred μl of the wash buffer was added after the final wash and Ca^2+ flux was measured after addition of 40 μl of wash buffer containing appropriate concentration of ligands. The FLIPR instrument (Molecular Device) was used in the measurement of Ca^2+ flux.
(§2) Intracellular function that the SP9030 receptor may mediate through activation by its ligand was examined in measurements of intracellular Ca^2+ flux.

[3] = test system: 293-EBNA cells mock transfected without SP9030 cDNA; test: Intracellular Ca2+ flux measurement (FLIPR) in mock transfected 293-EBNA cells; type: cell-based
Protocol: as §1, §2

CCCCC[C@H](O)/C=C/C=C\C/C=C\C/C=C\CCCC(=O)O [15(5)-OH-5z, 8z, 11z, 13e)-eicosatetraenoic acid]
Affinity of the receptor for the ligand (in words) [1]: high affinity

CCCCC/C=C\C[C@@H](O)/C=C/C=C/C=C\[C@@H](O)CCCC(=O)O [LTB4, leukotriene B4]
Cellular Ca2+ release [2]: activated cellular Ca^2+ release
Affinity of the receptor for the ligand (in words) [1]: high affinity
Ca2+ response to incubation with ligand [3]: did not respond

CC/C=C\C/C=C\C[C@@H](O)/C=C/C=C/C=C\[C@@H](O)CCCC(=O)O [LTB5, leukotriene B5]
Ki ([1]; 0.25 nM ^3H-LTB4, Ki=EC50/(1+[^3H-LTB4]/Kd), Kd […]): 8.6 ± 5.3 nM
Affinity of the receptor for the ligand (in words) [1]: high affinity

CCCCC[C@H](O)/C=C/C=C\C=C\C=C\[C@@H](O)[C@@H](O)CCCC(=O)O [lipoxin A4]
Ki [1]: 112 ± 40 nM
Affinity of the receptor for the ligand (in words) [1]: high affinity
